Experimental data reported in PubChem BioAssay (NCI).
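These data come from cells grown in 96-well plates and exposed to compound for 48 hours at five concentrations. GI50 = concentration required for 50% inhibition of growth. TGI: concentration producing complete growth inhibition.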

Assays:
Assay in all cases: growth of human tumour cells (NCI), 48 h
HS 578T breast = test system: HS 578T breast
MCF7 breast = test system: MCF7 breast
NCI-H460 lung = test system: NCI-H460 lung
SNB-75 CNS = test system: SNB-75 CNS
HT29 colon = test system: HT29 colon
SN12C renal = test system: SN12C renal
MDA-MB-231 breast = test system: MDA-MB-231 breast
SNB-19 CNS = test system: SNB-19 CNS
RXF 393 renal = test system: RXF 393 renal
HOP-92 NSCLC = test system: HOP-92 NSCLC
HCC-2998 colon = test system: HCC-2998 colon
NCI-H522 lung = test system: NCI-H522 lung
M14 melanoma = test system: M14 melanoma
SF-268 CNS = test system: SF-268 CNS
LOX IMVI melanoma = test system: LOX IMVI melanoma
UO-31 renal = test system: UO-31 renal
EKVX NSCLC = test system: EKVX NSCLC
UACC-257 melanoma = test system: UACC-257 melanoma
SK-OV-3 ovarian = test system: SK-OV-3 ovarian
OVCAR-3 ovarian = test system: OVCAR-3 ovarian
786-0 renal = test system: 786-0 renal
OVCAR-4 ovarian = test system: OVCAR-4 ovarian
OVCAR-8 ovarian = test system: OVCAR-8 ovarian
NCI/ADR-RES ovarian = test system: NCI/ADR-RES ovarian
SF-295 CNS = test system: SF-295 CNS
CAKI-1 renal = test system: CAKI-1 renal
RPMI-8226 leukemia = test system: RPMI-8226 leukemia
SK-MEL-28 melanoma = test system: SK-MEL-28 melanoma
SF-539 CNS = test system: SF-539 CNS
K-562 leukemia = test system: K-562 leukemia
A549 NSCLC = test system: A549 NSCLC
TK-10 renal = test system: TK-10 renal
MOLT-4 leukemia = test system: MOLT-4 leukemia
DU-145 prostate = test system: DU-145 prostate
COLO 205 colon = test system: COLO 205 colon
NCI-H226 lung = test system: NCI-H226 lung
A498 renal = test system: A498 renal
MALME-3M melanoma = test system: MALME-3M melanoma
ACHN renal = test system: ACHN renal
U251 CNS = test system: U251 CNS
HOP-62 NSCLC = test system: HOP-62 NSCLC
SK-MEL-5 melanoma = test system: SK-MEL-5 melanoma
SW-620 colon = test system: SW-620 colon
MDA-MB-435 = test system: MDA-MB-435
CCRF-CEM leukemia = test system: CCRF-CEM leukemia
UACC-62 melanoma = test system: UACC-62 melanoma
KM12 colon = test system: KM12 colon
IGROV1 ovarian = test system: IGROV1 ovarian
HCT-116 colon = test system: HCT-116 colon
OVCAR-5 ovarian = test system: OVCAR-5 ovarian
SK-MEL-2 melanoma = test system: SK-MEL-2 melanoma
HCT-15 colon = test system: HCT-15 colon
BT-549 breast = test system: BT-549 breast
T-47D breast = test system: T-47D breast
SR leukemia = test system: SR leukemia
PC-3 prostate = test system: PC-3 prostate
HL-60(TB) leukemia = test system: HL-60(TB) leukemia

## CS(=O)c1nccc(-c2c(-c3ccc(F)c(OCc4ccc(F)cc4)c3)nc3sccn23)n1 (centres undefined)
HS 578T breast
  GI50: 73.1 µM
  TGI: > 100 µM
MCF7 breast
  GI50: 2.18 µM
  TGI: 5.39 µM
NCI-H460 lung
  GI50: 3.78 µM
  TGI: 14.3 µM
SNB-75 CNS
  GI50: > 100 µM
  TGI: > 100 µM
HT29 colon
  GI50: 22.3 µM
  TGI: > 100 µM
SN12C renal
  GI50: > 100 µM
  TGI: > 100 µM
MDA-MB-231 breast
  GI50: 26.8 µM
  TGI: > 100 µM
SNB-19 CNS
  GI50: 14.9 µM
  TGI: 38.6 µM
RXF 393 renal
  GI50: 16.5 µM
  TGI: 63.8 µM
HOP-92 NSCLC
  GI50: 5.76 µM
  TGI: 43.9 µM
HCC-2998 colon
  GI50: 10.2 µM
  TGI: 23.6 µM
NCI-H522 lung
  GI50: 60.6 µM
  TGI: > 100 µM
M14 melanoma
  GI50: 35.1 µM
  TGI: > 100 µM
SF-268 CNS
  GI50: 19.5 µM
  TGI: 57.6 µM
LOX IMVI melanoma
  GI50: 74.6 µM
  TGI: > 100 µM
UO-31 renal
  GI50: > 100 µM
  TGI: > 100 µM
EKVX NSCLC
  GI50: 16.3 µM
  TGI: 41.3 µM
UACC-257 melanoma
  GI50: 15 µM
  TGI: 36.5 µM
SK-OV-3 ovarian
  GI50: > 100 µM
  TGI: > 100 µM
OVCAR-3 ovarian
  GI50: 2.84 µM
  TGI: 10.7 µM
786-0 renal
  GI50: > 100 µM
  TGI: > 100 µM
OVCAR-4 ovarian
  GI50: 22.4 µM
  TGI: 74.1 µM
OVCAR-8 ovarian
  GI50: 53.2 µM
  TGI: > 100 µM
NCI/ADR-RES ovarian
  GI50: > 100 µM
  TGI: > 100 µM
SF-295 CNS
  GI50: > 100 µM
  TGI: > 100 µM
CAKI-1 renal
  GI50: 18.4 µM
  TGI: 76.6 µM
RPMI-8226 leukemia
  GI50: 6.55 µM
  TGI: 43.8 µM
SK-MEL-28 melanoma
  GI50: 6.6 µM
  TGI: 21.5 µM
SF-539 CNS
  GI50: > 100 µM
  TGI: > 100 µM
K-562 leukemia
  GI50: 6.53 µM
  TGI: > 100 µM
A549 NSCLC
  GI50: > 100 µM
  TGI: > 100 µM
TK-10 renal
  GI50: > 100 µM
  TGI: > 100 µM
MOLT-4 leukemia
  GI50: 10.2 µM
  TGI: 90.2 µM
DU-145 prostate
  GI50: 3.72 µM
  TGI: 13.2 µM
COLO 205 colon
  GI50: > 100 µM
  TGI: > 100 µM
NCI-H226 lung
  GI50: > 100 µM
  TGI: > 100 µM
A498 renal
  GI50: > 100 µM
  TGI: > 100 µM
MALME-3M melanoma
  GI50: > 100 µM
  TGI: > 100 µM
ACHN renal
  GI50: 16.9 µM
  TGI: > 100 µM
U251 CNS
  GI50: > 100 µM
  TGI: > 100 µM
HOP-62 NSCLC
  GI50: 17.7 µM
  TGI: 40.6 µM
SK-MEL-5 melanoma
  GI50: 44 µM
  TGI: > 100 µM
SW-620 colon
  GI50: 27 µM
  TGI: > 100 µM
MDA-MB-435
  GI50: 47.8 µM
  TGI: > 100 µM
CCRF-CEM leukemia
  GI50: 15.8 µM
  TGI: > 100 µM
UACC-62 melanoma
  GI50: 32.1 µM
  TGI: > 100 µM
KM12 colon
  GI50: 11.3 µM
  TGI: 31.6 µM
IGROV1 ovarian
  GI50: 4.14 µM
  TGI: 17.1 µM
HCT-116 colon
  GI50: 5.08 µM
  TGI: 20.8 µM
OVCAR-5 ovarian
  GI50: > 100 µM
  TGI: > 100 µM
SK-MEL-2 melanoma
  GI50: 71.8 µM
  TGI: > 100 µM
HCT-15 colon
  GI50: 16.3 µM
  TGI: > 100 µM
BT-549 breast
  GI50: > 100 µM
  TGI: > 100 µM
T-47D breast
  GI50: 2.64 µM
  TGI: 7 µM
SR leukemia
  GI50: 17.1 µM
  TGI: > 100 µM
PC-3 prostate
  GI50: 11.3 µM
  TGI: 34.1 µM
HL-60(TB) leukemia
  GI50: 3.54 µM
  TGI: 13.7 µM
